What was measured:
Myzus persicae [1] = assay: B1: Myzus persicae (Green Peach Aphid), mixed population, sachet test; assay type: in vivo; conditions: 144 h, 12.5 ppm in 30% sucrose solution, 6 days after infestation, read-out: control of Myzus persicae (mortality, feeding activity)
Method: B1: Myzus persicae (Green Peach Aphid) (Mixed Population, Sachet Test)
Each well of a 24-well microtiter plate is filled with 0.6 ml 30% sucrose solution, containing 12.5 ppm of the test compounds. For producing the sachets, the wells are covered with stretched parafilm and infested with a mixed population of Myzus persicae. 6 days after the infestation, samples are checked for mortality (feeding activity).

Myzus persicae [2] = assay: B2: Myzus persicae (Green Peach Aphid), mixed population, systemic/feeding activity, curative; assay type: in vivo; conditions: 144 h, roots of infested pea seedlings in test solution of 6 ppm, 6 days after introduction, read-out: control of Myzus persicae (mortality)
Description: B2: Myzus persicae (Green Peach Aphid) (Mixed Population, Systemic/Feeding Activity, Curative)
Roots of pea seedlings, infested with an aphid population of mixed ages, are placed directly in the test solutions of 6 ppm. 6 days after introduction, samples are checked for mortality and special effects on the plant.

[3] = system: African bean aphid (Aphis craccivora); assay: Example 1: sugarbeet seed treatment, reduction of African bean aphid; assay type: in vivo; conditions: infested 14 days after sowing, counted 7 days after infestation
Method: (§1) Sugarbeet seeds are treated with P1.1, P1.5, P1.6, P1.8, P1.32 or P1.38 at rates of 0.1, 0.3 and 0.6 mg a.i./seed. The seeds are sown into 9-cm pots filled with 280 mL of soil. After placing the seeds on the soil surface they are covered with 50 mL of soil. Before and during the bioassays, the plants are grown in greenhouse chambers at 25° C. during daytime, 23° C. during night, 50-60% rH, a 14-hour photoperiod and artificial lighting when natural light fell below 20 kLux. After sowing, the pots are transferred to the greenhouse chambers, set up in a random fashion and are irrigated as necessary from above. After 14 days, the plants are infested with African bean aphid (Aphis craccivora) by placing one infested pea seedling containing approximately 150 aphids of a population of mixed developmental stages onto each plant. Seven days after infestation, the number of aphids is counted per plant. Each treatment group is replicated 10 times. Each replicate contains 1 plant.

[4] = system: cabbage aphid (Myzus persicae); assay: Example 2: Chinese cabbage seed treatment, reduction of cabbage aphid; assay type: in vivo; conditions: infested 14 days after sowing, counted 7 days after infestation
Method: as §1, with “Chinese cabbage” for “Sugarbeet”, “of” for “of 0.1,”, “cabbage” for “African bean”, “(Myzus persicae)” for “(Aphis craccivora)”

| Compound | mortality at 12.5 ppm (Myzus persicae [1]) | mortality at 6 ppm (Myzus persicae [2]) | Efficacy, % (reduction of aphids compared to untreated control plants) ([3]; 0.1 mg/seed) | Efficacy, % (reduction of aphids compared to untreated control plants) ([4]; 0.3 mg/seed) | Efficacy, % (reduction of aphids compared to untreated control plants) ([4]; 0.6 mg/seed) | Efficacy, % (reduction of aphids compared to untreated control plants) ([3]; 0.3 mg/seed) | Efficacy, % (reduction of aphids compared to untreated control plants) ([3]; 0.6 mg/seed) | melting point |
| --- | --- | --- | --- | --- | --- | --- | --- | --- |
| NC1=NS(=O)(=O)c2cccc(Cl)c21 [P1.5, 3-Amino-4-chlorobenzo[d]isothiazole-1,1-dioxide] | 100% | 100% | 87% | 11% | 64% |  |  |  |
| COc1cccc2c1C(NC(C)=O)=NS2(=O)=O [P1.8, 3-Acetylamino-4-methoxybenzo[d]isothiazole-1,1-dioxide] |  |  | 8% | 0% | 28% | 72% | 95% | 242 to 245 °C |
| COc1cccc2c1C(N)=NS2(=O)=O [P1.1, 3-Amino-4-methoxybenzo[d]isothiazole-1,1-dioxide] | 100% | 100% | 41% | 10% | 45% | 69% | 92% |  |
